Measurements reported in publication PMC12079163 (Drug Development Research, 2025).
“And” between values parts separate entries of the source, which are not always exact repeats. Equal values may be shown once. “Also recorded” adds a separate entry of the source. Read-outs that look alike come from different tables or passages of the source.

How the values were obtained:
[1] = Solubility under the assay conditions; type: physicochemical; details: HDAC, BCL‐2 and cell assays; data not reliable, not reported
MOLM14 cells = test: alamarBlue cell metabolism/viability assay, MOLM14; type: cell-based; details: Homo sapiens
From the text: (§1) As described previously, MOLM14 and MV4;11 cell lines (both human AML cell lines harboring both mixed‐lineage‐leukemia (KMT2A) rearrangement and FLT3‐ITD mutations) were obtained from DSMZ (Branschweig, DEU) and ATCC (Manassas, VA), respectively (Goodis et al. [2024]; Moses et al. [2021]); MV4;11 BCL‐2 over‐expressing (OE) cells were generated via lentiviral transduction as described previously (Empty Vector AddGene #227688; BLC‐2 OE AddGene #227690) (Goodis et al. [2024]).
(§2) Cell lines were cultured in RPMI 1640 media (Cellgro, # MDT‐10‐040‐CV) containing 10% fetal bovine serum (Gemini BioProducts #100‐106) and passaged twice per week to maintain cultures in log‐phase‐growth. Upon receipt or derivation, cell lines were expanded and multiple aliquots cryopreserved in DMSO‐containing medium in the vapor phase of liquid nitrogen. Cells were genetically authenticated and confirmed to be mycoplasma‐negative before cryopreservation. Cells from a given cryopreserved aliquot were cultured for no more than 3–4 months.
(§3) AnnV/7AAD assays were assessed by flow cytometry and analyzed using FlowLogic software v8.7.
(§4) Our dual inhibitors were next evaluated in an alamarBlue^TM cell metabolism/viability assay against 3 human AML cell lines: MOLM14, MV4;11, and MV4;11 BCL‐2 overexpressing (OE). […] However, pleasingly, several of our top compounds based on the cell‐free assay results also performed well in the AML cell‐based metabolism/viability assays.

BCL‐2 = target: T1, BCL‐2 (Homo sapiens, UniProt P10415); test: BCL‐2 TR‐FRET assay (BPS Bioscience 50222, run by Nanosyn); type: binding; details: cell‐free TR‐FRET assay, duplicate, errors are SEMs
T1 construct: purchased BPS Bioscience (assay run by Nanosyn) 50222

MV4;11 cells [2] = test: Annexin V/7AAD apoptosis/death assay by flow cytometry; type: cell-based, human; details: 200 nM; for viability at 0.2 µM: Homo sapiens, 48 h, MV4;11, in Figure 2, read-out: viable cells (AnnV‐/7AAD‐), lower left quadrant
Protocol: as §3
Figure 2 Apoptotic cell death of MV4;11 AML cells. […] As a negative control, an equi‐volume of DMSO‐treated sample was also assessed. Flow cytometric dot plots of 200 nM‐treated MV4;11 cells stained with Annexin‐V and 7AAD depict the gating strategy used to delineate viable cells (AnnV‐/7AAD‐), early apoptotic cells (AnnV+/7AAD‐), and late apoptotic cells (AnnV+/7AAD +).

[3] = tested on: MV4;11 BCL‐2 over‐expressing (OE) cells; test: alamarBlue cell metabolism/viability assay, MV4;11 BCL‐2 OE; type: cell-based; details: Homo sapiens
From the text: as §1, §2, §3, §4

MV4;11 cells [4] = test: alamarBlue cell metabolism/viability assay, MV4;11; type: cell-based, human; details: for IC50: at least triplicate, errors are SEMs
From the text: as §1, §2, §3, §4

HDAC6 = target: T2, HDAC6 (Homo sapiens, UniProt Q9UBN7); test: HDAC6 fluorogenic assay (BPS Bioscience 50076, run by Nanosyn); details: for selectivity for HDAC6 over HDAC1 (HDAC6/1 selectivity): ratio of IC50 values
T2 sequence (Q9UBN7 1-1215): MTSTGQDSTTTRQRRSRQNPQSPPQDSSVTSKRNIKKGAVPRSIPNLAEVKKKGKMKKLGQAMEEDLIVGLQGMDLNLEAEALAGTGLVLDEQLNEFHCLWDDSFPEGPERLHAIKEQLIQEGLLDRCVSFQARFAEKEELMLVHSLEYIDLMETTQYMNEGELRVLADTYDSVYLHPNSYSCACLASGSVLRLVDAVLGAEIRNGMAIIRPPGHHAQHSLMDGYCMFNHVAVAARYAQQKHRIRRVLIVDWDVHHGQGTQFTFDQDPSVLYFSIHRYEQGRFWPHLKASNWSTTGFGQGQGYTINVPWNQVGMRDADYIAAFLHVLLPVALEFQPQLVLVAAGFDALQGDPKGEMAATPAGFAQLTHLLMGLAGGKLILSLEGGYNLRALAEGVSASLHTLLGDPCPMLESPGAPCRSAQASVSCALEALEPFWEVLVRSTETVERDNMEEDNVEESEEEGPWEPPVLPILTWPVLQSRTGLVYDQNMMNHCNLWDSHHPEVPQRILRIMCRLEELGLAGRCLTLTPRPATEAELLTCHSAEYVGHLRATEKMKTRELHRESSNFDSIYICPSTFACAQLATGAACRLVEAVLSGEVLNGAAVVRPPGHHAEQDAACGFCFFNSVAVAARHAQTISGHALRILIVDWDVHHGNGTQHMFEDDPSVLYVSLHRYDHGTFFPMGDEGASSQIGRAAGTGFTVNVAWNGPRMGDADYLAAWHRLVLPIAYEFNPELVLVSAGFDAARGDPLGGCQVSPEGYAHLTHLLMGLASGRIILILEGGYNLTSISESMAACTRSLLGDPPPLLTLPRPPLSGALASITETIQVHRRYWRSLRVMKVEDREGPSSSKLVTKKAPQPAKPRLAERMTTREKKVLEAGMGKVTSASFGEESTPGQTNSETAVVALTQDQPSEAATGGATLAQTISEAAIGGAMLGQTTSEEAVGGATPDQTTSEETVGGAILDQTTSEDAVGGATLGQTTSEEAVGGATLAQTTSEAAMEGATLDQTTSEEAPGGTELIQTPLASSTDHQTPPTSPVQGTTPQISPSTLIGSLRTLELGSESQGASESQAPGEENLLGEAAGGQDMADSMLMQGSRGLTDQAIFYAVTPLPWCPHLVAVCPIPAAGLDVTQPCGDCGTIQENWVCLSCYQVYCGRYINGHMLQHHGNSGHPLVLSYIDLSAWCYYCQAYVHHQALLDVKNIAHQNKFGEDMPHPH

HDAC1 = target: T3, HDAC1 (Homo sapiens, UniProt Q13547); test: HDAC1 fluorogenic assay (BPS Bioscience 50061, run by Nanosyn); type: biochemical; details: for IC50: cell‐free fluorogenic assay, duplicate, errors are SEMs
T3 construct: purchased BPS Bioscience (assay run by Nanosyn) 50061

[5] = MOLM-14, at least triplicate, errors are SEMs, read-out: IC50 MOLM‐14
[6] = MV4-11, alamarBlue, at least triplicate, errors are SEMs, read-out: IC50 MV4;11 BCL‐2 OE
[7] = Homo sapiens, MV4-11, alamarBlue

T1 sequence (P10415 whole entry): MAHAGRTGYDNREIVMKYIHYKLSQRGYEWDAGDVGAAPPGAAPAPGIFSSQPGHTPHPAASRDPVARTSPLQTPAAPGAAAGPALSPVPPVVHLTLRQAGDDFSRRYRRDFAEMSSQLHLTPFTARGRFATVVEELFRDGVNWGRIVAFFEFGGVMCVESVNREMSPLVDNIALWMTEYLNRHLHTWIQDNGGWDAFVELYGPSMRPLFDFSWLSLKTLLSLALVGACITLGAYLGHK
T3 sequence (Q13547 whole entry): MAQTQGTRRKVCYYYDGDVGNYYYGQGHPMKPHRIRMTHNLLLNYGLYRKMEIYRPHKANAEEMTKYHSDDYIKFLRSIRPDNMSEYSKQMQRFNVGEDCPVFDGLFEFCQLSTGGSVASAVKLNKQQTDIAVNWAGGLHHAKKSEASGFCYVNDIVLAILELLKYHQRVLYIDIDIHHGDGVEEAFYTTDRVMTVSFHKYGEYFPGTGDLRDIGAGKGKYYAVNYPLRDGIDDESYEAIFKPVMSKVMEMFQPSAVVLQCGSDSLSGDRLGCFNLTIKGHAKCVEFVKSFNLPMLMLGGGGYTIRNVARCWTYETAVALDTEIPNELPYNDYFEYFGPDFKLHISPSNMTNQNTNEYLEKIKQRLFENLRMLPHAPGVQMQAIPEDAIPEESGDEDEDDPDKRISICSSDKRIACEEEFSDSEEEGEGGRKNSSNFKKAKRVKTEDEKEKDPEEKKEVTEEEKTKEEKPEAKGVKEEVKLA

| SMILES | solubility under the assay conditions [1] | IC50 (MOLM14 cells; [5]) [nM] | IC50 (BCL‐2) | induction of apoptosis compared with venetoclax (MV4;11 cells [2]; MV4;11) | viability at 0.2 µM (MV4;11 cells [2]) [%] | IC50 [3, 6] [nM] | IC50 (MV4;11 cells [4]; [7]) [nM] | IC50 (HDAC6) [nM] | selectivity for HDAC6 over HDAC1 (HDAC6/1 selectivity) (HDAC6) | IC50 (HDAC1) [nM] | selectivity for HDAC1 over HDAC6 (HDAC1; ratio of IC50 values) [fold] | fold less active than venetoclax, MV4;11 cell metabolism/viability (MV4;11 cells [4]; IC50 compared with venetoclax) | IC50 (MOLM14 cells; MOLM-14, read-out: IC50 MOLM14 cells) [nM] | decrease in % AnnV‐/7AAD‐ (viable) cells (MV4;11 cells [2]; MV4;11) | IC50 ([3]; MV4-11, alamarBlue, read-out: IC50 MV4;11 OE BCL‐2 cell line) [nM] | IC50 (MV4;11 cells [4]; alamarBlue) [nM] |
| --- | --- | --- | --- | --- | --- | --- | --- | --- | --- | --- | --- | --- | --- | --- | --- | --- |
| CC1(C)CCC(CN2CCN(c3ccc(C(=O)NS(=O)(=O)c4ccc(NCc5ccc(C(=O)Nc6ccc(-c7cccs7)cc6N)cc5)c([N+](=O)[O-])c4)c(Oc4cnc5[nH]ccc5c4)c3)CC2)=C(c2ccc(Cl)cc2)C1 [AMC‐4‐074, 2‐((1H‐pyrrolo[2,3‐b]pyridin‐5‐yl)oxy)‐N‐((4‐((4‐((2‐amino‐4‐(thiophen‐2‐yl)phenyl)carbamoyl)benzyl)amino)‐3‐nitrophenyl)sulfonyl)‐4‐(4‐((4′‐chloro‐5,5‐dimethyl‐3,4,5,6‐tetrahydro‐[1,1′‐biphenyl]‐2‐yl)methyl)piperazin‐1‐yl)benzamide] | solubility proved problematic; also recorded: Limited solubility | – | – | – | – | – | – | – | – | – | – | – | – | – | – | – |
| CC1(C)CCC(CN2CCN(c3ccc(C(=O)NS(=O)(=O)c4ccc(NCC5CCN(c6ccc(C(=O)NO)cc6)CC5)c([N+](=O)[O-])c4)c(Oc4cnc5[nH]ccc5c4)c3)CC2)=C(c2ccc(Cl)cc2)C1 [AMC‐4‐154, 2‐((1H‐pyrrolo[2,3‐b]pyridin‐5‐yl)oxy)‐4‐(4‐((4′‐chloro‐5,5‐dimethyl‐3,4,5,6‐tetrahydro‐[1,1′‐biphenyl]‐2‐yl)methyl)piperazin‐1‐yl)‐N‐((4‐(((1‐(4‐(hydroxycarbamoyl)phenyl)piperidin‐4‐yl)methyl)amino)‐3‐nitrophenyl)sulfonyl)benzamide] | – | > 10000 | 0.554 ± 0.045 nM | induced apoptosis similar to venetoclax | 49.2 | 631 ± 50 | 66.2 ± 13.6 | 8710 ± 1890 | > 3 fold | > 30000 | – | – | – | – | – | – |
| CC1(C)CCC(CN2CCN(c3ccc(C(=O)NS(=O)(=O)c4ccc(NCCNc5ncc(C(=O)NO)cn5)c([N+](=O)[O-])c4)c(Oc4cnc5[nH]ccc5c4)c3)CC2)=C(c2ccc(Cl)cc2)C1 [BD‐4‐208, 2‐((2‐((4‐(N‐(2‐((1H‐pyrrolo[2,3‐b]pyridin‐5‐yl)oxy)‐4‐(4‐((4′‐chloro‐5,5‐dimethyl‐3,4,5,6‐tetrahydro‐[1,1′‐biphenyl]‐2‐yl)methyl)piperazin‐1‐yl)benzoyl)sulfamoyl)‐2‐nitrophenyl)amino)ethyl)amino)‐N‐hydroxypyrimidine‐5‐carboxamide] | – | – | – | – | – | – | > 10000 | 149 ± 20 | ~ 3 fold | 463 ± 60 | – | – | – | – | – | – |
| CC1(C)CCC(CN2CCN(c3ccc(C(=O)NS(=O)(=O)c4ccc(NCc5ccc(C(=O)Nc6ccccc6N)cc5)c([N+](=O)[O-])c4)c(Oc4cnc5[nH]ccc5c4)c3)CC2)=C(c2ccc(Cl)cc2)C1 [BD‐4‐213, 2‐((1H‐pyrrolo[2,3‐b]pyridin‐5‐yl)oxy)‐N‐((4‐((4‐((2‐aminophenyl)carbamoyl)benzyl)amino)‐3‐nitrophenyl)sulfonyl)‐4‐(4‐((4′‐chloro‐5,5‐dimethyl‐3,4,5,6‐tetrahydro‐[1,1′‐biphenyl]‐2‐yl)methyl)piperazin‐1‐yl)benzamide] | – | 1630 ± 36 | < 1 nM and 0.539 nM | induced apoptosis similar to venetoclax | 43.9 | 342 ± 55 | 19.3 ± 5.6 | > 30000 | – | 2880 ± 570 | > 10 | – | – | – | – | – |
| CC1(C)CCC(CN2CCN(c3ccc(C(=O)NS(=O)(=O)c4ccc(NCc5ccc(C(=O)NO)cc5)c([N+](=O)[O-])c4)c(Oc4cnc5[nH]ccc5c4)c3)CC2)=C(c2ccc(Cl)cc2)C1 [SF‐8‐038, 2‐((1H‐pyrrolo[2,3‐b]pyridin‐5‐yl)oxy)‐4‐(4‐((4′‐chloro‐5,5‐dimethyl‐3,4,5,6‐tetrahydro‐[1,1′‐biphenyl]‐2‐yl)methyl)piperazin‐1‐yl)‐N‐((4‐((4‐(hydroxycarbamoyl)benzyl)amino)‐3‐nitrophenyl)sulfonyl)benzamide] | – | > 10000 | < 1 nM and 0.617 nM | somewhat less potent | 58.5 | 2450 ± 96 | 285 ± 81 | 368 ± 85 | > 80 fold | > 30000 | – | ~ 3 fold | – | – | – | – |
| CC1(C)CCC(CN2CCN(c3ccc(C(=O)NS(=O)(=O)c4ccc(NCCNC(=O)c5ccc(/C=C/C(=O)NO)cc5)c([N+](=O)[O-])c4)c(Oc4cnc5[nH]ccc5c4)c3)CC2)=C(c2ccc(Cl)cc2)C1 [SF‐8‐062, (E)‐2‐((1H‐pyrrolo[2,3‐b]pyridin‐5‐yl)oxy)‐4‐(4‐((4′‐chloro‐5,5‐dimethyl‐3,4,5,6‐tetrahydro‐[1,1′‐biphenyl]‐2‐yl)methyl)piperazin‐1‐yl)‐N‐((4‐((2‐(4‐(3‐(hydroxyamino)‐3‐oxoprop‐1‐en‐1‐yl)benzamido)ethyl)amino)‐3‐nitrophenyl)sulfonyl)benzamide] | – | – | – | – | – | – | > 10000 | – | about 20 fold | 6140 ± 1240 | – | – | – | – | – | – |
| CC1(C)CCC(CN2CCN(c3ccc(C(=O)NS(=O)(=O)c4ccc(NCCNC(=O)c5ccc(C(=O)NO)cc5)c([N+](=O)[O-])c4)c(Oc4cnc5[nH]ccc5c4)c3)CC2)=C(c2ccc(Cl)cc2)C1 [SF‐8‐083, N ^1‐(2‐((4‐(N‐(2‐((1H‐pyrrolo[2,3‐b]pyridin‐5‐yl)oxy)‐4‐(4‐((4′‐chloro‐5,5‐dimethyl‐3,4,5,6‐tetrahydro‐[1,1′‐biphenyl]‐2‐yl)methyl)piperazin‐1‐yl)benzoyl)sulfamoyl)‐2‐nitrophenyl)amino)ethyl)‐N ^4‐hydroxyterephthalamide] | – | – | – | – | – | – | > 10000 | 418 ± 34 | ~ 30 fold | 11600 ± 1760 | – | – | – | – | – | – |
| CC1(C)CCC(CN2CCN(c3ccc(C(=O)NS(=O)(=O)c4ccc(NCC5CCOCC5)c([N+](=O)[O-])c4)c(Oc4cnc5[nH]ccc5c4)c3)CC2)=C(c2ccc(Cl)cc2)C1 [Venetoclax, venetoclax, reference compound] | – | 1720 ± 59 | – | – | 49.4 | 1020 ± 177 | 82 | > 30000 | – | > 30000 | – | – | 1700 | ~ 50% | 1000 | 82.8 ± 16.7 |
